Data as given in patent US8263642B2, “Antimicrobial compounds and methods of use thereof” (Vanderbilt University, priority 2008, dated 2012).

How the values were obtained:
[1] = system: HssRS-dependent hrtAB expression; test: Luminescence-based assay to monitor HssRS-dependent hrtAB expression (phrtABlux reporter), Newman; assay type: cell-based, Staphylococcus aureus; conditions: Newman; for activation at 0.0825 µM: Staphylococcus aureus, NEWMAN, read-out: % Lumi, luminescence induced by the compound compared to the heme control (82.5 nM) in the same plate; for Luminescence: raw luminescence value obtained in a luminometer
Experimental: (§1) With reference to Table 1, “Luminescence” refers to the raw luminescence value obtained in a luminomter. “Control (82.5 nm)” refers to the luminescence value obtained from heme at 82.5 nM as a positive control in the same plate as the experimental. “% lum” is the percentage of luminescence induced by the compound as compared to the heme control in the same plate. […] All of these assays are described in the application. […] “N/T” indicates the test was not performed.
A hrtAB-driven expression system was created in the pXen vector system (Xenogen) (Francis, K. P., D. Joh, C. Bellinger-Kawahara, M. J. Hawkinson, T. F. Purchio, and P. R. Contag. 2000. Monitoring bioluminescent Staphylococcus aureus infections in living mice using a novel luxABCDE construct. Infect Immun 68:3594-3600). This vector contains a promoterless luxCDABE operon from Photorabdus luminescens which produces blue green light when expressed. The luxCDABE encodes for a fatty acid reductase (LuxCDE) that produces a long chain fatty aldehyde which, when combined with cellular flavin mononucleotide, is oxidized by a luciferase (LuxAB) to produce light. Therefore, this system is useful in that it bypasses the need for substrate addition and is capable of generating light in the absence of any added reagents. Furthermore, the luminescent signal produced by the combined activities of LuxAB and LuxCDE is of sufficient intensity to be visualized in unmanipulated intact bacteria.
To establish an assay that measures HssRS-dependent expression of luxCDABE, the promoter for hrtAB upstream of luxCDABE was cloned and transformed this vector (phrtABlux) into wildtype and ΔhssR S. aureus. A promoterless vector (plux) and a plasmid containing luxCDABE under the control of a constitutive promoter (psrtAlux) (Mazmanian, S. K., G. Liu, H. Ton-That, and O. Schneewind. 1999. “Staphylococcus aureus sortase, an enzyme that anchors surface proteins to the cell wall.” Science 285:760-763) were included as negative and positive controls, respectively. Initially, wildtype S. aureus harboring either plux, phrtABlux, or psrtAlux were plated on solid medium that either lacked heme or contained 4 μM heme. Only wildtype S. aureus containing psrtAlux produced light on solid media regardless of the presence or absence of heme. […] Light was not produced by bacteria containing plux in either condition.
To adapt this system for a HTS to measure ligand recognition by HssRS, luminescence of wildtype and ΔhssR harboring the above listed plasmids in liquid media with or without heme was measured. […] Taken together, these experiments establish a whole cell […] assay that can identify small molecule modifiers of HssRS. This screen, in some aspects, can identify molecules that can be used as molecular probes in structure-function analyses to determine the mechanism by which S. aureus sense host heme.
Upon staphylococcal exposure to heme, HssRS senses heme and activates expression of hrtAB. This process can be measured using a reporter assay that employs a vector encoding the light-producing luxCDABE operon under the control of the hrtAB promoter. This assay results in whole cell luminescence upon HssRS-dependent activation of hrtAB, forming the foundation for the development of an assay suitable for high-throughput screens for small molecule activators of HssRS.
To develop an automated HTS format, S. aureus wildtype and ΔhssR harboring reporter constructs (psrtAlux, phrtAlux, plux) can be grown for 15 hours at 37° C. in tryptic soy broth (TSB) containing 10 μg/ml chloramphenicol. The addition of chloramphenicol is useful to ensure that the staphylococci propagate the reporter plasmid upon cell division. Following growth, bacterial cultures can be normalized and 2×10^7 cells (approximately 2 μl) can be added to individual wells of black walled, clear bottomed, 96-well plates. […]

[2] = system: hrtAB-driven expression of the xylE reporter gene; test: XylE reporter assay (hrtAB promoter-xylE), Newman; assay type: cell-based, Staphylococcus aureus; conditions: for XylE (0.5): level of XylE induction at 0.5 uM of the compound; for XylE (5.0): level of XylE induction at 5.0 uM of the compound; for XylE (50.0): level of XylE induction at 50.0 uM of the compound; for XylE (0.05): level of XylE induction at 0.05 uM of the compound
Experimental: as §1
Compounds that activate HssRS-driven hrtAB expression in the luciferase-based screen can be subjected to two separate counter screens to confirm these compounds as active hits. First, compounds of interest can be tested for their ability to activate expression of hrtAB in the XylE expression assay described hereinbelow. This is an in vitro assay that measures hrtAB-driven expression of the xylE reporter gene. The XylE-based reporter assay utilizes slightly more manipulations than the primary luciferase-based screen. […] It should be appreciated that a shortcoming of this counter screen is that it measures reporter gene expression, which is a similar activity as that measured in the primary assay. To address this shortcoming, compounds that are positive in both XylE- and luciferase-based assays can be subjected to a second counter screen as described hereinbelow.
S. aureus strains harboring the appropriate reporter construct were inoculated into 500 μl of TSB containing 10 μg/ml chloramphenicol in 1.5 ml tubes. Cultures were grown O/N at 37° C. with shaking. Bacteria were pelleted by centrifugation and spent medium was aspirated. The pellet was washed once with 500 μl of 20 mM potassium phosphate, pH 7.6, and resuspended in 150 μl of 100 mM potassium phosphate buffer, pH 8.0, 10% (v/v) acetone, 25 μg/ml lysostaphin. After 20 minute incubation at 37° C. and 5 minute incubation on ice, samples were centrifuged at 20,000 g for 30 minutes at 4° C. 1-10 μl of supernatant was added to a 96-well plate and 200 μl of 100 mM potassium phosphate, pH 8.0, 0.2 mM pyrocatechol was added to each well. Formation of 2-hydroxymuconic semialdehyde was tracked by measuring the absorbance at 375 nm every minute for 30 minutes on a Varian MP 50 microplate reader. Protein concentration in samples was determined by BCA (Pierce). One unit of specific activity of XylE in a sample is defined as the formation of 1 nmol of 2-hydroxymuconic semialdehyde per minute per milligram of cellular protein at 30° C. (Chien, Y., Manna, A. C., Projan, S. J., and Cheung, A. L. 1999, “SarA, a global regulator of virulence determinants in Staphylococcus aureus, binds to a conserved motif essential for sar-dependent gene regulation. J. Biol. Chem. 274, 37169-37176).
The hrtAB intergenic region was fused to the xylE structural gene by PCR-SOE. In the first reaction, primer P1B:[…] and P2B:[…] were used to amplify the hrtAB intergenic region from S. aureus strain Newman genomic DNA. In the second PCR reaction primers P3B:[…] and P4B:[…] were used to amplify the xylE structural gene using pALC1639 template DNA (provided by Dr. Ambrose Cheung) and PCR product purified using a Qiagen gel extraction kit. For the PCRSOE reaction, a 1:300 dilution of purified reaction 1 and reaction 2 PCR products was mixed and amplified by PCR using […]. This yielded a construct in which the hrtAB intergenic region is fused to the xylE gene in such a manner that the position of the start codon for xylE corresponds to the position of the start codon for […] in the hrtAB locus. The hrtAB promoter-xylE fusion DNA was then subcloned into pOS1. As a control we also constructed a promoterless xylE vector. The xylE gene was amplified from pACL1639 template DNA using the primers P1C:[…] and P2C:[…] and then cloned into the pOS1 vector.

Row | Structure (SMILES) | activation at 0.0825 µM [1] | Luminescence [1] | XylE (0.5) [2] | XylE (5.0) [2] | XylE (50.0) [2] | XylE (0.05) [2]
1 | O=C(NC(=S)Nc1ccc(Oc2ccccc2)cc1)c1cccs1 | 415% | 1774 | 0.01 | 0.09 | 0.01 | 
2 | C/C(=N/NC(=O)c1cccc(I)c1)c1ccccc1O |  | 5542 | 0.03 | 0.04 | 0.3 | 1
3 | Oc1ccc(CCNC2CCCc3c2[nH]c2ccc(-c4ccccc4)cc32)cc1 (stereo not drawn) | 127% | 534 | 0.02 | 1 | 1 | 0.06
4 | O=c1oc2ccccc2c(O)c1C(c1ccc([N+](=O)[O-])o1)c1c(O)c2ccccc2oc1=O | 559% | 1939 | 0.02 | 0.07 | 0 | 
5 | O=C(Nc1ccc(C(F)(F)F)cc1)c1cc(S(=O)(=O)NCc2ccc(F)cc2)ccc1F | 493% | 1710 | 0 | 0.03 | 0.03 | 
6 | O=C1C2=C(Nc3nn(-c4ccccc4)c(O)c3C2c2ccc([N+](=O)[O-])cc2)c2ccccc21 (stereo not drawn) |  | 2608 | 1 | 0.3 | 1 | 0.4
7 | COC(=O)C1=C(C)NC(=O)NC1c1cn(-c2ccccc2)nc1-c1ccc(OC)c(OC)c1 (stereo not drawn) | 866% | 1854 | 0.04 | 0.03 | 0.05 | 
8 | O=C(Nc1ccccc1C(=O)Nc1ccc(Cl)cc1)c1ccccc1 | 92% | 309 | 0.08 | 0.08 | 0.06 | 0.05
9 | Cc1ccc(CNC(=O)c2ccc(CSCc3ccccc3Cl)o2)cc1 | 192% | 1603 | 0.08 | 0.7 | 0.8 | 
10 | COc1ccccc1-c1csc(NC(=O)c2ccc(-c3ccccc3)cc2)n1 |  | 1704 | 0.05 | 1 | 1 | 
11 | COc1ccc(Br)cc1C(=O)NC(=S)Nc1cc(C)c(C)cc1O [drawing 24] | 227% | 946 | 0.3 | 0.09 | 0.3 | 0.07
